Data from ChEMBL document CHEMBL5465560, “Selectivity Literature for EUbOPEN Chemogenomic Library” (2024).
Each block holds one compound with its values, some of them ahead of it.

What was measured:
[1] = molecular target: Serine/threonine-protein kinase Nek7 (Homo sapiens) (UniProt Q8TDX7); conditions: at 10 µM
[2] = molecular target: Mitogen-activated protein kinase kinase kinase kinase 5 (Homo sapiens) (UniProt Q9Y4K4); assay: Selectivity interaction (Kinase panel (Invitrogen)) EUB0000639a MAP4K5; conditions: at 200 nM
Chain of Mitogen-activated protein kinase kinase kinase kinase 5 (Homo sapiens) (Q9Y4K4 whole entry, looked up, canonical isoform): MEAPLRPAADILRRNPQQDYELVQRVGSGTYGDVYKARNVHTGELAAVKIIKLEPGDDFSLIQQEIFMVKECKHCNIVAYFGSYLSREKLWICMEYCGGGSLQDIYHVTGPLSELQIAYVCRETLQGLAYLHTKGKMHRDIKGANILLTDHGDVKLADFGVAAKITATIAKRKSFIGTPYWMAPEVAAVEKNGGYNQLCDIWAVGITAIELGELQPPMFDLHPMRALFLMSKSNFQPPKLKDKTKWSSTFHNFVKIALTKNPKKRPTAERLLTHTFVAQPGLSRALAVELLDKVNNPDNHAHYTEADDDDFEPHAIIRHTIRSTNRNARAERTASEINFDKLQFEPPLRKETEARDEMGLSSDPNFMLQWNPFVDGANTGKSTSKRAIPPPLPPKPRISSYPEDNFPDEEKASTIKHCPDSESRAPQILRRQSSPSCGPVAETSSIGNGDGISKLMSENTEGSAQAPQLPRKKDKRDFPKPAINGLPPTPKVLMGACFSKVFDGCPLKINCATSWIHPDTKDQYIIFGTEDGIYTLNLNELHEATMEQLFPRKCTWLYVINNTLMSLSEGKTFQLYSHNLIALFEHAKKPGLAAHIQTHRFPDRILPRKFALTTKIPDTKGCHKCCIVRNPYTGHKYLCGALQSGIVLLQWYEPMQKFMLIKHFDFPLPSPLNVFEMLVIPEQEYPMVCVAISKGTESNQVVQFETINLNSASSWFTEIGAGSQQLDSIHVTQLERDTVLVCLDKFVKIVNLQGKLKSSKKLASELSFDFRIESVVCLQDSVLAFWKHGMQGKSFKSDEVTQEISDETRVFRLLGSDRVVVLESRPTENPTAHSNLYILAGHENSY

[3] = molecular target: T1, Phosphatidylinositol 4,5-bisphosphate 3-kinase catalytic subunit delta isoform (Homo sapiens) (UniProt O00329); assay: Selectivity interaction (ActivX KiNativ screen (kinase selectivity in THP-1 cell lysates)) EUB0000639a PIK3CD; assay type: subcellular; conditions: lysate, at 0.04 µM
T1 sequence (whole entry): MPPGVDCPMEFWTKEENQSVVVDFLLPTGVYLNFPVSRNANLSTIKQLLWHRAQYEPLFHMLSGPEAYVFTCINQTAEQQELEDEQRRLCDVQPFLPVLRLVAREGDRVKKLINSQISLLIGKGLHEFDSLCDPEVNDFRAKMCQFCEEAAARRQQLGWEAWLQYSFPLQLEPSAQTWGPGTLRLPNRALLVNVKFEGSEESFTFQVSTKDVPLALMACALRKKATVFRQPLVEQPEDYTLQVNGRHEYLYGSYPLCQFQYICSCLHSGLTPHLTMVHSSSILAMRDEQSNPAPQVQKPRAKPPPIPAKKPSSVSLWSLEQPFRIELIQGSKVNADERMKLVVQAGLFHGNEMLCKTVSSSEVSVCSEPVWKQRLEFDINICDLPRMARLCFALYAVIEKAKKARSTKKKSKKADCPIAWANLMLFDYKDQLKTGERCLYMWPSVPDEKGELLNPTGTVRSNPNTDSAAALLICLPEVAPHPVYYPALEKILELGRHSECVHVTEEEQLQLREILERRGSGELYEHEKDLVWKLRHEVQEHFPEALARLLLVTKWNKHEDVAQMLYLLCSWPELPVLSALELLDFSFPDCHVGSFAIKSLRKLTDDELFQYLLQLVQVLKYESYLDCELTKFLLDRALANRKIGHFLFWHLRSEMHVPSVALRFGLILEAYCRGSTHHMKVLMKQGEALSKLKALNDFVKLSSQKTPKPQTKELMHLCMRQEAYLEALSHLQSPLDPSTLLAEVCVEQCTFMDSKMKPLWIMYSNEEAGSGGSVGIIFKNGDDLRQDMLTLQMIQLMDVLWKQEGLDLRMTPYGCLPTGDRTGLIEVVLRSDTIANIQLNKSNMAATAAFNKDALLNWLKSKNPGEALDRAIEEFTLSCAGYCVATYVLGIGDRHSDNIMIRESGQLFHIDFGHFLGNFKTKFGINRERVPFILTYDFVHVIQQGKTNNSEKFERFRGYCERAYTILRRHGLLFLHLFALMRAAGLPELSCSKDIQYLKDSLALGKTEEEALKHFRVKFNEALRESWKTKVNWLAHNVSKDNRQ

[4] = molecular target: T2, Protein kinase C zeta type (Homo sapiens) (UniProt Q05513); assay: Selectivity interaction (ProQinase) EUB0000171b PRKCZ; conditions: at 5 µM
T2 sequence (whole entry): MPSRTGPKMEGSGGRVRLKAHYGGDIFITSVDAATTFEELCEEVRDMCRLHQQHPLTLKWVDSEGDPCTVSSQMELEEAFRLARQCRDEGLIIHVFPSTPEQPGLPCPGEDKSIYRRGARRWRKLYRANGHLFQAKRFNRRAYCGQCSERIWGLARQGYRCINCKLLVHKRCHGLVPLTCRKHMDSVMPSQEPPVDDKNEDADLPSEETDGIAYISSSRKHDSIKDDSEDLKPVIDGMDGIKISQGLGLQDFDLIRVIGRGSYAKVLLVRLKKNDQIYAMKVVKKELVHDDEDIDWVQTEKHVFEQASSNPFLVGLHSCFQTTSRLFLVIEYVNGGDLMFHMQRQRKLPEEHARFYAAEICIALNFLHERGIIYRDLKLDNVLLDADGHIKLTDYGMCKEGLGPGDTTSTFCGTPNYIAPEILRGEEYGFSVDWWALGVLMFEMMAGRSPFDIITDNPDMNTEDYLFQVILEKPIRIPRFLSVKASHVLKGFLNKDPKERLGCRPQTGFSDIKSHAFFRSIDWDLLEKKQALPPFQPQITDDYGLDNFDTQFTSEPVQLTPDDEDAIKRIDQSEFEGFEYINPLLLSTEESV

[5] = molecular target: T3, Mitogen-activated protein kinase kinase kinase 3 (Homo sapiens) (UniProt Q99759); assay: Selectivity interaction (KinomeScan (DiscoverX)) EUB0000695a MAP3K3; conditions: at 100 nM
T3 sequence (whole entry): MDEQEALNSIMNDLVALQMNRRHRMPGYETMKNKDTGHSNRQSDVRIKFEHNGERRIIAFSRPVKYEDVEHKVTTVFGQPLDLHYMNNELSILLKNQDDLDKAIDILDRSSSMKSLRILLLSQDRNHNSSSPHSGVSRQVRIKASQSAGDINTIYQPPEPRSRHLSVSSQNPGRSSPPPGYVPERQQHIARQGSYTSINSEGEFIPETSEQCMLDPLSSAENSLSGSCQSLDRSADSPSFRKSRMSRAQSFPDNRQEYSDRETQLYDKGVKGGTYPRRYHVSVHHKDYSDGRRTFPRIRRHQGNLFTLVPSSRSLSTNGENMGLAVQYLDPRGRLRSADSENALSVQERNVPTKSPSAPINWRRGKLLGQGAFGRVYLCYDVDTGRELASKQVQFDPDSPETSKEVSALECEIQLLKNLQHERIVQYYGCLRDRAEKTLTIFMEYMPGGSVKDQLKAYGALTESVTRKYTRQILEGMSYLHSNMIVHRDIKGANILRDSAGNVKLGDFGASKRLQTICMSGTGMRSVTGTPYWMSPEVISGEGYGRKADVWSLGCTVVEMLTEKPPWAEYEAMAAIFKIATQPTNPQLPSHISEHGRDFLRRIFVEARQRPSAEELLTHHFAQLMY

[6] = molecular target: T4, Dual specificity mitogen-activated protein kinase kinase 3 (Homo sapiens) (UniProt P46734); assay: Selectivity interaction (KinomeScan (DiscoverX)) EUB0001049a MAP2K3; conditions: at 1 µM
T4 sequence (whole entry): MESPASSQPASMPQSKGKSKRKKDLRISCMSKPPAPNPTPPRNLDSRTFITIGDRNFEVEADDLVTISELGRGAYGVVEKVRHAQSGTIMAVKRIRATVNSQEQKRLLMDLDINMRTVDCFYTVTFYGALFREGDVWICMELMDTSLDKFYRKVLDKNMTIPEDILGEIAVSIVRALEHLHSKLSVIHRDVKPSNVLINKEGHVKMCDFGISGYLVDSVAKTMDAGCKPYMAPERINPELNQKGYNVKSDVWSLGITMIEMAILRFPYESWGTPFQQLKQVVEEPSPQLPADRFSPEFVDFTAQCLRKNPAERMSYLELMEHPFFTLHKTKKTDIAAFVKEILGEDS

Chain of Serine/threonine-protein kinase Nek7 (Homo sapiens) (Q8TDX7 whole entry, looked up): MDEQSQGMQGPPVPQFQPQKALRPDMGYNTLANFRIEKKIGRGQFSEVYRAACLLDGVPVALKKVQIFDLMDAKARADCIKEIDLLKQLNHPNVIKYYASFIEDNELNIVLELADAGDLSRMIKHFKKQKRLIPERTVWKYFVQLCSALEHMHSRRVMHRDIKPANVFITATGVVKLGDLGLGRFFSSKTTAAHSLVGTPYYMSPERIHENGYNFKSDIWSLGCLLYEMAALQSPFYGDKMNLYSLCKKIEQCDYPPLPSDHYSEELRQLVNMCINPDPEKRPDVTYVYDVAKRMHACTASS

% of control [1]: 100%
Structure (SMILES): CCN(CC)CCCCNc1ncc2cc(-c3cc(OC)cc(OC)c3)c(NC(=O)NC(C)(C)C)nc2n1

% of inhibition [2]: 10% | % of inhibition [3]: 3.5%
Structure (SMILES): CC[C@@H]1[C@H](F)C(=O)N[C@@H]1COc1nccc2cc(C(N)=O)c(OC)cc12 [ZIMLOVISERTIB]

% of control [4]: 68%
Structure (SMILES): C=CC(=O)Nc1cccc(C(=O)Nc2ccc(Nc3cc(-c4[nH]c(SC)nc4C)ccn3)cc2)c1

Structure (SMILES): Cc1cc(F)c(C(=O)Nc2cccc(-c3nncn3C(C)C)n2)cc1-n1cnc(C2CC2)c1
% of control [5]: 93%

Structure (SMILES): COc1cc(Nc2nc(C)cc(-c3cnn4nc(OC)ccc34)n2)cc(C(F)(F)F)c1
% of control [6]: 86%
